Earlier results as cited in patent publication EP1190712A1 (SMB Technology, priority 2000, dated 2002).

Details: human, in vivo

COc1cccc(C2(O)CCCCC2CN(C)C)c1 (stereo not shown) [Tramadol]
Cmax (time): 30 to 60 min
